This assay has as its system Male beagle dogs. The experiment in a line: canine telemetry protocol, blood pressure reduction efficacy. It counts as in vivo. The settings on record: telemetered male beagle dogs, 3 mg/kg, oral gavage. The method, then: Compounds of the invention were evaluated for blood pressure reduction efficacy using the following canine telemetry protocol.
Male beagle dogs (approximately 1-3 years old) with a body weight of between 10 and 16 kg were surgically implanted with DSI radiotelemetry devices (model: TL11M2-D70-PCT). Briefly, under an inhalant anesthesia, isoflurane/oxygen mixture (1-3.5%/to effect), the body of the telemetry device was positioned and secured intra-abdominally. Subsequently, the arterial catheter of the telemetry device was passed subcutaneously to the inguinal area and introduced into the femoral artery and advanced to the level of the descending aorta. The catheter was secured with 2-0 silk ligatures. The muscle and underlying fascia was closed over the catheter using absorbable suture and the skin was closed using non-absorbable suture. The animals were allowed a minimum recovery period of 2 weeks between surgery and the evaluation of test compounds.
Compound evaluation consisted of a 3 day paradigm at a 3 mg/kg dose. On the first day, no compounds were administered during a 24 hour period of baseline data collection. Blood pressure and heart rate data were collected continuously for one minute periods at 10 minute intervals. On the days of compound administration half the animals received test article with the other half receiving the vehicle used for compound formulation. All test materials were administered by oral gavage in a volume of 1 mL/kg. Data are expressed either as raw values (mm Hg or beats per minute) or as the change from baseline (average value for about 12 hours in low activity period prior to dosing). Change is SBP (systolic blood pressure) and PP (pulse pressure) over time is shown below: […]

Take `CCCCO/N=[N+](\[O-])N1CCC(C(=O)Oc2c(C)ncc3c2CO[C@H]3c2ccc(Cl)cc2)CC1` [Example 12, (3S)-3-(4-Chlorophenyl)-6-methyl-1,3-dihydrofuro[3,4-c]pyridin-7-yl 1-[(Z)-butoxy-NNO-azoxy]piperidine-4-carboxylate]: the “ΔPP (pulse pressure), change from baseline, 1-6 h” value (“ΔPP … change from baseline, 1-6 h” below) is −12 mm Hg; the “ΔSBP (systolic blood pressure), change from baseline, 1-6 h” value (from here on “ΔSBP … change from baseline, 1-6 h”) was −11 mm Hg; the “ΔPP (pulse pressure), change from baseline, 6-12 h” value (shortened to “ΔPP … change from baseline, 6-12 h”) is given as −5.8 mm Hg; the “ΔSBP (systolic blood pressure), change from baseline, 6-12 h” value (“ΔSBP … change from baseline, 6-12 h” for short) is recorded as −5.8 mm Hg. Also, the “ΔPP (pulse pressure), change from baseline, 12-18 h” value (“ΔPP … change from baseline, 12-18 h” below) is 0.8 mm Hg and the “ΔSBP (systolic blood pressure), change from baseline, 12-18 h” value (“ΔSBP … change from baseline, 12-18 h” below) amounted to 3.3 mm Hg.
For the compound `CCCC(C)ON=[N+]([O-])N1CCC[C@H]1C(=O)Oc1c(C)ncc2c1CO[C@H]2c1ccc(Cl)cc1` (stereo in doubt) [Example 9, (3S)-3-(4-Chlorophenyl)-6-methyl-1,3-dihydrofuro[3,4-c]pyridin-7-yl 1-[(Z)-pentan-2-yloxy-NNO-azoxy]-L-prolinate], the “ΔPP … change from baseline, 1-6 h” value is on record as −10.6 mm Hg; the “ΔSBP … change from baseline, 1-6 h” value is given as −11.8 mm Hg; the “ΔPP … change from baseline, 6-12 h” value is −5.2 mm Hg; the “ΔSBP … change from baseline, 6-12 h” value is listed as −6.6 mm Hg. Further, the “ΔPP … change from baseline, 12-18 h” value was −2.5 mm Hg and the “ΔSBP … change from baseline, 12-18 h” value came to 1.0 mm Hg.
On to `Cc1ncc2c(c1OC(=O)[C@@H]1CCCN1[N+]([O-])=NOC1CCCCC1)CO[C@H]2c1ccc(Cl)cc1` (stereo in doubt) [Example 11, (3S)-3-(4-Chlorophenyl)-6-methyl-1,3-dihydrofuro[3,4-c]pyridin-7-yl 1-[(Z)-cyclohexyloxy-NNO-azoxy]-L-prolinate], for which the “ΔPP … change from baseline, 1-6 h” value is −6.9 mm Hg; the “ΔSBP … change from baseline, 1-6 h” value is −9.3 mm Hg; the “ΔPP … change from baseline, 6-12 h” value is −2.3 mm Hg; the “ΔSBP … change from baseline, 6-12 h” value is −3.3 mm Hg. Also, the “ΔPP … change from baseline, 12-18 h” value stood at 0.9 mm Hg and the “ΔSBP … change from baseline, 12-18 h” value is on record as 3.9 mm Hg.
On to `CCCCON=[N+]([O-])N1CCC[C@H]1C(=O)Oc1c(C)ncc2c1CO[C@H]2c1ccc(Cl)cc1` (stereo in doubt) [Example 1, (3S)-3-(4-Chlorophenyl)-6-methyl-1,3-dihydrofuro[3,4-c]pyridin-7-yl 1-[(Z)-butoxy-NNO-azoxy]-L-prolinate], for which the “ΔPP … change from baseline, 1-6 h” value is −14.0 mm Hg; the “ΔSBP … change from baseline, 1-6 h” value was −15.4 mm Hg; the “ΔPP … change from baseline, 6-12 h” value is −6.4 mm Hg; the “ΔSBP … change from baseline, 6-12 h” value is −6.2 mm Hg. Further, the “ΔPP … change from baseline, 12-18 h” value is recorded as −3.2 mm Hg and the “ΔSBP … change from baseline, 12-18 h” value is recorded as −0.6 mm Hg.
Turning to `CC[C@H](C)CON=[N+]([O-])N1CCC[C@H]1C(=O)Oc1c(C)ncc2c1CO[C@H]2c1ccc(Cl)cc1` (stereo in doubt) [Example 10, (3S)-3-(4-Chlorophenyl)-6-methyl-1,3-dihydrofuro[3,4-c]pyridin-7-yl 1-((Z)-{[(2S)-2-methylbutyl]oxy}-NNO-azoxy)-L-prolinate], the “ΔPP … change from baseline, 1-6 h” value was found to be 0.6 mm Hg; the “ΔSBP … change from baseline, 1-6 h” value is reported as −5.3 mm Hg; the “ΔPP … change from baseline, 6-12 h” value stood at 3.4 mm Hg; the “ΔSBP … change from baseline, 6-12 h” value is recorded as −0.9 mm Hg. The “ΔPP … change from baseline, 12-18 h” value was 3.8 mm Hg and the “ΔSBP … change from baseline, 12-18 h” value is given as −3.1 mm Hg.
In the case of `Cc1ncc2c(c1OC(=O)[C@@H]1CCCN1[N+]([O-])=NOCC(C)C)CO[C@H]2c1ccc(Cl)cc1` (stereo in doubt) [Example 5, (3S)-3-(4-Chlorophenyl)-6-methyl-1,3-dihydrofuro[3,4-c]pyridin-7-yl 1-[(Z)-2-methylpropoxy-NNO-azoxy]-L-prolinate], the “ΔPP … change from baseline, 1-6 h” value is −3.6 mm Hg; the “ΔSBP … change from baseline, 1-6 h” value was −2.4 mm Hg; the “ΔPP … change from baseline, 6-12 h” value was −1.7 mm Hg; the “ΔSBP … change from baseline, 6-12 h” value was −2.6 mm Hg. For the same compound, the “ΔPP … change from baseline, 12-18 h” value was −2.6 mm Hg and the “ΔSBP … change from baseline, 12-18 h” value is given as −2.8 mm Hg.

(Values after patent US8377911B2, “Diuretics” (Merck Sharp & Dohme Corp., priority 2009, dated 2013).)
